These results are taken from patent US20040023961A1, “Aryl ureas with raf kinase and angiogenisis inhibiting activity” (BAYER CORPORATION, priority 2002, published 2004).

One assay addresses Flk-1 (Mus musculus, UniProt P35918). The assay can be described thus: In Vitro Flk-1 ELISA Assay. It is filed as biochemical, murine. Conditions: poly-Glu-Tyr coated plates, 3.3 μM ATP. As to the method: In Vitro Flk-1 ELISA Assay
The Flk-1 ELISA assay was performed on 96-well Costar 9018 high-binding plates coated overnight with poly-Glu-Tyr (Sigma #P 0275). After coating, plates were washed with 20 mM HEPES pH=7.5, 150 mM NaCl, 0.1% Tween-20. These plates were then blocked with Blocking Buffer (20 mM HEPES pH=7.5, 150 mM NaCl, 1% BSA, 0.1% Tween-20) for 1 hr at room temperature on a plate shaker. After washing, the reaction was prepared using 20 mM HEPES pH=7.5, 100 mM KCl, 10 mM MgCl2, 3 mM MnCl2 0.05% glycerol, 0.005% Triton X-100, 1 mM BME and 3.3 μM ATP. The assay was initiated with Flk-1 giving a final enzyme concentration of 50 ng/well.
The reaction was incubated at room temperature for 1 hr on a plate shaker and was stopped by washing the plate. The primary antibody incubation step was for 1 hour at room temperature using PT66 phosphotyrosine antibody (Sigma 1:5000 dilution). After washing, the plate was then incubated (1 hr room temp) with the secondary antibody solution of anti-mouse HRP-conjugated antibody (Amersham 1:5000 dilution). After another wash step, plates were developed using 100 μL TMB substrate solution (KPL) and then quenched with KPL stop solution. These quenched plates were read at 450 nm on a Molecular Devices spectrophotomer plate reader. For IC50 generation, compounds were added prior to the enzyme initiation. […]

The test system of assay [1] is neovascularization of the joint. Conditions: rat collagen arthritis model; Peacock et al. 1992; cited from earlier work.

pIC50: −log10 of the molar value.

Flk-1, sequence (P35918 20-1345): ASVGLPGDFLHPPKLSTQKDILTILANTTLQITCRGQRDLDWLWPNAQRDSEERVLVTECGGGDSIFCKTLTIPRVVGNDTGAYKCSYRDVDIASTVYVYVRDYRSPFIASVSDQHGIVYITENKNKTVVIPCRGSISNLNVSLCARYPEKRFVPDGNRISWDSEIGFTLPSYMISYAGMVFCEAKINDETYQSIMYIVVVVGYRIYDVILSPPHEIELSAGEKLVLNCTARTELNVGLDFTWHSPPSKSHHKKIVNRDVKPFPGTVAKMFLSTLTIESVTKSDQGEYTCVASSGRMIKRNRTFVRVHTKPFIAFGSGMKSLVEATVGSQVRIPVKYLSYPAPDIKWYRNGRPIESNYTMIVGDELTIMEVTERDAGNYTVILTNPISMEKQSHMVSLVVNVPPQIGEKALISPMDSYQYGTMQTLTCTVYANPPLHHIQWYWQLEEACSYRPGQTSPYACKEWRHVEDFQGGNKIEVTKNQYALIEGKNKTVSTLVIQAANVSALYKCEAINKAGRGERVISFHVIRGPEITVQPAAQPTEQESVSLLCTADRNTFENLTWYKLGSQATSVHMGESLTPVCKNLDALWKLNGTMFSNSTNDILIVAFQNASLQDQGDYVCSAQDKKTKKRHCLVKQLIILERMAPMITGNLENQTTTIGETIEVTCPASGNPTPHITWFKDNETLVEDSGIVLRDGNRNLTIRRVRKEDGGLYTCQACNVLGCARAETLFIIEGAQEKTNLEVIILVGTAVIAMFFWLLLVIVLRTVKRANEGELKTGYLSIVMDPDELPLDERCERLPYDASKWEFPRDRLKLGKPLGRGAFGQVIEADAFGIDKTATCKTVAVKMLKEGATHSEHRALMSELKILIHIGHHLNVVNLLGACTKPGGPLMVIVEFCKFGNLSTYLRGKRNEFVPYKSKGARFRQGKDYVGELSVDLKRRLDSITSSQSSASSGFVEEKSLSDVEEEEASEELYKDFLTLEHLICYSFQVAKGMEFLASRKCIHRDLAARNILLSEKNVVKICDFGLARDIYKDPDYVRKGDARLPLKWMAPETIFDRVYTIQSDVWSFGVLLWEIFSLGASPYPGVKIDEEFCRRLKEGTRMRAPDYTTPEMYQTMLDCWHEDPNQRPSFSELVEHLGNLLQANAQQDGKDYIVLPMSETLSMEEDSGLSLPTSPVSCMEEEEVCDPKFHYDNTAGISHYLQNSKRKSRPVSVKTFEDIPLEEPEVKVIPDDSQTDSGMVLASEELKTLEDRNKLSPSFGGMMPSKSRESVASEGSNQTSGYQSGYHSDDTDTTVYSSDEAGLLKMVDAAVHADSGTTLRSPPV

A word on the pIC50: it is −log10 of the IC50, conventionally taken in molar units. On Flk-1, `Cc1ccc(-n2nc(C(C)(C)C)cc2NC(=O)Nc2ccc(OCCN3CCOCC3)c3ccccc23)cc1` [{[3-(tert-butyl)-1-(4-methylphenyl)pyrazol-5-yl]amino}-N-[4-(2-morpholin-4-ylethoxy)naphthyl]carboxamide] showed a negative-log IC50 (pIC50) greater than 6.00.
Regarding `CO[C@@H]1[C@H](OC(=O)NC(=O)CCl)CC[C@]2(CO2)[C@H]1[C@@]1(C)O[C@@H]1CC=C(C)C` [AGM-170], the “neovascularization of the joint” value in assay [1] is given as “prevent neovascularization of the joint”.
